# Measurements taken from US8785160B2, “Prebiotic formulations and methods of use” (Ritter Pharmaceuticals, Inc., priority 2009, dated 2014).
# Test system: Bifidobacterium species
# Test: Comparative growth of Bifidobacterium species and strains on 2% carbohydrate in scratch MRS
# Format: cell-based
# Conditions: scratch MRS + 2% carbohydrate, 37 C
smiles,measurement,value
OC[C@H]1O[C@@H](O[C@H]2[C@H](O)[C@@H](O)C(O)O[C@@H]2CO)[C@H](O)[C@@H](O)[C@H]1O (stereo partly shown) [lactose],"comparative growth of Bifidobacterium species on four carbohydrate sources (glucose, lactose, GOS1, GOS2)",none of the Bifidobacterium strains used in these experiments grew on lactose
